The results in this text go back to ChEMBL document CHEMBL1145087 (J Med Chem, 2003).

The target of this test is T1, Androgen receptor (Homo sapiens, UniProt P10275).
T1 sequence (P10275 whole entry): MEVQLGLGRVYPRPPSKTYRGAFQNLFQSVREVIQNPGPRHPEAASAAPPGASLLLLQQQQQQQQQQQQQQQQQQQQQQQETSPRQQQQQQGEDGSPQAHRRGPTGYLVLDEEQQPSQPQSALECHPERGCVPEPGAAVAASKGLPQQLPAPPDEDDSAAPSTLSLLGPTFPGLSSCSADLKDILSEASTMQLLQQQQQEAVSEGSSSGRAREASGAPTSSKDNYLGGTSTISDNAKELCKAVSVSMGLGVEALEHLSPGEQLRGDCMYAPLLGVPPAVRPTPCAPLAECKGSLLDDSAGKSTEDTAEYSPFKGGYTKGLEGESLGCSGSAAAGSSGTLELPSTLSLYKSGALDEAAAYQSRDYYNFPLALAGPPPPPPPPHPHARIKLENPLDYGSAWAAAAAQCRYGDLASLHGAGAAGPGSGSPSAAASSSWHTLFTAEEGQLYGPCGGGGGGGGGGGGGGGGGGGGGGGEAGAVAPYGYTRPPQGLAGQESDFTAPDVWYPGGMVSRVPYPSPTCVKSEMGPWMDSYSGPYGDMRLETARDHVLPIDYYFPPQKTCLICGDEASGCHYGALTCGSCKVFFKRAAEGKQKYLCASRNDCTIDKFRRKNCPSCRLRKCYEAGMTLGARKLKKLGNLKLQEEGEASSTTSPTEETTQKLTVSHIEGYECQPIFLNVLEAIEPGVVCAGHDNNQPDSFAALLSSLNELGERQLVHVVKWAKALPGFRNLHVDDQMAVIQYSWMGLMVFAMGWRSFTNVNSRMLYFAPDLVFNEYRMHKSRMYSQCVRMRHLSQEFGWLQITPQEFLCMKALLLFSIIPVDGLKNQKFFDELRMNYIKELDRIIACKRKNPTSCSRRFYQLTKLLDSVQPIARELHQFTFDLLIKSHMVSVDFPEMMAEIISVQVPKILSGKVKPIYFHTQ
Description: Inhibition of human androgen receptor at 10e-12 to 10e-5 M

`CC1=CC(C)(C)Nc2ccc3c(c21)/C(=C/c1ccccc1)Oc1c(F)cccc1-3` returned an IC50 of 0.9 µM.
`CC1=CC(C)(C)Nc2ccc3c(c21)/C(=C/c1ccsc1)Oc1ccc(F)cc1-3` gave an IC50 of 0.215 µM.

What is called IC50 is the concentration that inhibits the measured activity by half. Higher therefore signals lower potency.
